{"source": "patent US20220409510A1", "about": "“Polypeptides And Methods For Improving Skin Conditions” (Interk Peptide Therapeutics Limited, priority 2018, published 2022)", "key": {"[1]": {"tested_on": "TGFβRII", "experiment": "TGFβRII expression in UV irradiated dermal fibroblasts (Western analysis)", "type": "cell-based, human", "details": "1, 2.5, 5 and 10 μM added immediately after UV; 5 h post UV; primary fibroblasts; FIG. 3B", "method": "The influence of the polypeptide IK34720 (SEQ ID NO: 3) on TGFβRII phosphorylation was assessed using the following protocol.\nHuman skin dermal fibroblasts were cultured from keratome biopsies of healthy adult human skin. Cells were between passages three and six. For UV irradiation, subconfluent cells were washed once with phosphate-buffered saline (PBS) and irradiated with UV. Immediately following irradiation, negative control (vehicle) or 1 μM, 2.5 μM, 5 μM and 10 μM of IK34720 (“1K” in FIG. 3B, SEQ ID NO: 3) were added to the cell cultures.\nFor Western analysis, nuclear extracts were prepared, membrane fractions were prepared and resolved on 8% SDS-polyacrylamide gel electrophoresis, transferred to polyvinylidene difluoride membrane, and reacted with primary antibodies. Blots were visualized and quantified."}, "[2]": {"tested_on": "8-OHdG formation in the skin", "experiment": "UV-induced oxidative stress (8-OHdG/8oxodG immunohistochemistry) in mouse skin", "type": "in vivo, Skh:hr1 hairless mice", "details": "topical immediately after 3 MED UVR; IK34720 20, 100 or 200 μg, Calcitriol 11.4 pmol/cm2; 3 h post-UVR; vs vehicle", "method": "8-hydroxy-2′-deoxyguanosine or 8-oxo-7,8-dihydro-2′-deoxyguanosine (8-OHdG/8-oxodG) is one of the predominant forms of free radical-induced in oxidative lesions with the concentrations of 8-OHdG within a cell being a measurement of oxidative stress. The role of the polypeptide IK34720 (SEQ ID NO: 3) in UV-induced oxidative stress was assessed using the following protocol.\nFemale Skh:hr1 hairless mice were exposed to solar simulated UV-irradiation (UVR) by exposure to one fluorescent UVB tube (Philips TL40W 12R/S, Eindhoven, The Netherlands) in combination with 6 UVA tubes (Hitachi 40W F40T 10/BL, Tokyo, Japan). The UVA and UVB irradiation was filtered through a 0.125 mm cellulose acetate sheet (Grafix Plastics, Cleveland, Ohio) as previously described (Dixon KM et al., Biochem Mol Biol, 2007, 103(3-5):451-6). […]\nBiopsies were taken from UV-irradiated dorsal skin 3 h post-UVR and fixed in Histochoice fixative (Amresco, Solon Ohio) for 6 h. […] Sections were subjected to routine hematoxylin and eosin staining for visualization of sunburn cells at 40× magnification, and the number of sunburn cells per linear millimetre of skin section recorded.\nLevels of 8-oxo-2′-deoxyguanosine (8oxodG) indicative of oxidative stress were detected by immunohistochemistry and image analysis (Dixon KM et al., Cancer Prey Res 2011, 4(9):1485-94) as set out below. […]"}, "[3]": {"tested_on": "Cyclobutane pyrimidine dimers (CPDs) in primary keratinocytes", "experiment": "CPD detection by IHC in keratinocytes after UV-irradiation in vitro", "type": "cell-based", "method": "An in vitro assay was conducted allowing for densitometry analysis of CPD detection by IHC in keratinocytes 3 h following UV-irradiation in accordance with the following protocol.\nKeratinocytes were harvested and cultured as described above at Example 2. Samples were split into two groups, being UV irradiated (UVR) and non-UV irradiated (SHAM). UV-irradiation was performed by solar simulated UV-irradiation for cells, also as described above at Example 2. Irradiation solution was PBS containing 5 mM D-glucose. […]\nHarvested keratinocytes were plated on poly-D-lysine coated coverslips in 96 well plates and irradiated (or sham treated) as described above in at Example 2 in PBS containing 5 mM D-glucose. Keratinocytes were fixed 3 h after UV-irradiation. Immunohistochemistry and image analysis were performed as described previously (Gordon-Thomson et al., Photochem Photobiol Sci, 2012, 11(12):1837-47; Gupta et al., vide supra, Rybchyn MS et al., J Invest Dermatol, 2018;138(5):1146-1156). Thymine dimers were detected using the anti-thymine dimer antibody (Sigma-Aldrich, Mo., USA) at 10 μg/mL, and quantified as an index of CPD, as previously described (Douki T and Cadet J, Biochemistry,2001, 40(8):2495-501)."}, "[4]": {"tested_on": "apoptotic cells in human skin explants", "experiment": "Apoptotic sunburn cells in human skin explants after UV-irradiation", "type": "cell-based", "details": "500 μM", "method": "FIGS. 14 and 15 illustrate the effect of the polypeptide IK34720 (SEQ ID NO: 3) on the number of apoptotic cells in human skin explants.\nSkin explants were cultured irradiated and treated as described above for CPD, and subsequent to treatment were stained and quantified as described for Example 6."}}}
{"sequence": "RSKAKNPLYRRRRRRRRR [IK34720, 18-residue polypeptide: … with a C-terminal polyarginine region of 8 arginines]", "values": [{"measurement": "TGFβRII expression", "setting": "[1]", "value": "restored TGFβRII expression in UV treated cells"}, {"measurement": "8-OHdG formation in the skin", "setting": "[2]", "value": "inhibits 8-OHdG formation"}, {"measurement": "CPD levels vs keratinocytes treated with Calcitriol", "setting": "[3]; 5 μM, 3 h after UV", "value": "comparable reduction in CPD levels"}, {"measurement": "CPD levels vs vehicle-treated UV-irradiated keratinocytes", "setting": "[3]; 5 μM, 3 h after UV", "value": "statistically significant (*p<0.05) reduction in CPD levels"}, {"measurement": "CPD formation (average intensity of CPD staining) vs positive control", "setting": "[3]; 10 uM, FIG. 8B", "value": "more effective at inhibiting CPD formation than the positive control 1,25 D"}, {"measurement": "CPD levels", "setting": "[3]; 0.5, 1, 2.5 or 5 μM after ssUV, keratinocytes fixed 3 h after UV, FIGS. 7 and 8", "value": "decreases CPD levels in primary keratinocytes exposed to solar simulated UV-irradiation in a dose dependent manner"}, {"measurement": "number of apoptotic cells", "setting": "[4]; 3 hrs post UV-irradiation, FIG. 14", "value": "statistically significantly reduces the number of apoptotic cells"}, {"measurement": "number of apoptotic cells", "setting": "[4]; 24 hrs post UV-irradiation, FIG. 15", "value": "statistically significantly reduces the number of apoptotic cells"}]}
